Assay results taken from patent publication US6696093B2, “Aldehyde donors for stabilizing peroxides” (Lonza Inc., priority 2000, dated 2004).

Assays:
[1] = H2O2 stabilization in papermaking process water (Example 1); details: for H2O2 residual: 45° C.
Protocol: Process waters from a papermaking facility which uses recycled fibers were collected during a bleaching stage and allowed to stand for 2 hours to achieve total depletion of the hydrogen peroxide in the process waters.
Into five separate Pyrex beakers were placed 400 ml of the process water. One was retained as a control. 150 and 300 ppm of an aqueous solution containing 40% by weight of 1,3-bis(hydroxymethyl)-5,5-dimethylhydantoin (DMDMH) (Dantogard®) were added to two beakers for a total concentration of 60 ppm and 120 ppm of DMDMH, respectively. On an equivalent aldehyde basis, this corresponds to 0.65 mEq/l and 1.30 mEq/l, respectively. 150 and 300 ppm of an aqueous solution containing […] of glutaraldehyde were added to the remaining two beakers for a total concentration of 83 ppm and 166 ppm of glutaraldehyde, respectively. On an equivalent aldehyde basis, this corresponds to 1.66 mEq/l and 3.32 mEq/l, respectively. The samples were placed in a controlled water bath at 45° C. and stirred with a magnetic stirrer set on slow agitation.
To all the test samples, a sufficient volume of a 1% (by weight) hydrogen peroxide (H2O2) aqueous solution was added to achieve a concentration of 20-25 ppm of hydrogen peroxide in the samples. At regular time intervals, over a 45 minute period, aliquots were removed and analyzed for peroxide residual (i.e. the concentration of hydrogen peroxide) using a thiosulfate titration kit (HACH Test Kit, Model HYP-1, available from Hach Company of Loveland, Colo.). The results, shown in Table 1, correlate to the amount of peroxide present at the specific time interval, expressed as ppm of hydrogen peroxide.

catalase = molecular target: T1, catalase (Aspergillus niger, UniProt P55303); test: Catalase promoted hydrogen peroxide decomposition in phosphate buffer pH 7.0 (Example 6); type: biochemical, A. niger; details: 526 ppm product
T1 construct: purchased Sigma Aldrich C-3515; host or cells: A. niger derived
Protocol: Hydrogen peroxide solutions containing 470 ppm active peroxide in sterile Butterfield's phosphate buffer (pH=7.0) were treated with 1.2 units of catalase (A. niger available from Sigma Aldrich of St. Louis, Mo. (C-3515)) alone or with 263 or 526 ppm of Dantogard® 2000, available from Lonza Inc. of Fair Lawn, N.J., or 526 ppm of an aqueous 49% glutaraldehyde solution. Dantogard® 2000 is a 65% aqueous mixture of DMDMH, MMDMH and DMH having a minimal free formaldehyde concentration. The peroxide decomposition rate was monitored during the decrease in peroxide concentration from 390 to 350 ppm by ultraviolet absorbance at 240 nm. The temperature was 23° C.

T1 sequence (P55303 whole entry): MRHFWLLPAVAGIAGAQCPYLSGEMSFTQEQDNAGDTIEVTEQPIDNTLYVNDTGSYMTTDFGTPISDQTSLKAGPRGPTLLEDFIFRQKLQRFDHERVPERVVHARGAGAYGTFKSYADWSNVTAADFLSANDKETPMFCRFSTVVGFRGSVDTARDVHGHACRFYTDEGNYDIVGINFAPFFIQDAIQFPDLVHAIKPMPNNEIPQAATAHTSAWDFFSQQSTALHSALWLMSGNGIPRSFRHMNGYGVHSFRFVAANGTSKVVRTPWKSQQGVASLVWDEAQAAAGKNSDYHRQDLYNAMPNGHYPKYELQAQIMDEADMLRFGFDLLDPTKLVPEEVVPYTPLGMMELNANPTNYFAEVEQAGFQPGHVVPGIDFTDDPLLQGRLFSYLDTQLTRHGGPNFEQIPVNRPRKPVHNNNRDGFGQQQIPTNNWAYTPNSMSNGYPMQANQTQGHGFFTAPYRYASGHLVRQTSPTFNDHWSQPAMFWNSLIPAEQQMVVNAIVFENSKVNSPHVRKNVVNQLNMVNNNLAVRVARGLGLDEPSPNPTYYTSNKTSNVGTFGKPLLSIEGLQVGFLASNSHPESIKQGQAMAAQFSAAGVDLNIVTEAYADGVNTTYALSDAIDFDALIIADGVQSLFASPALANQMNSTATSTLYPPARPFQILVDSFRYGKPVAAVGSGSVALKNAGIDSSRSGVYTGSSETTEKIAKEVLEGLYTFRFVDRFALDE

CC1(C)C(=O)N(CO)C(=O)N1CO [DMDMH, 1,3-bis(hydroxymethyl)-5,5-dimethylhydantoin]
H2O2 residual ([1]; 60 ppm DMDMH, 0 min): 25 ppm H2O2
H2O2 residual ([1]; 60 ppm DMDMH, 10 min): 24 ppm H2O2
H2O2 residual ([1]; 60 ppm DMDMH, 15 min): 23 ppm H2O2
H2O2 residual ([1]; 60 ppm DMDMH, 20 min): 22 ppm H2O2
H2O2 residual ([1]; 60 ppm DMDMH, 30 min): 18 ppm H2O2
H2O2 residual ([1]; 60 ppm DMDMH, 40 min): 16 ppm H2O2
H2O2 residual ([1]; 60 ppm DMDMH, 45 min): 15 ppm H2O2
H2O2 residual ([1]; 120 ppm DMDMH, 0 min): 26 ppm H2O2
H2O2 residual ([1]; 120 ppm DMDMH, 10 min): 24 ppm H2O2
H2O2 residual ([1]; 120 ppm DMDMH, 15 min): 23 ppm H2O2
H2O2 residual ([1]; 120 ppm DMDMH, 20 min): 20 ppm H2O2
H2O2 residual ([1]; 120 ppm DMDMH, 30 min): 18 ppm H2O2
H2O2 residual ([1]; 120 ppm DMDMH, 40 min): 17 ppm H2O2
H2O2 residual ([1]; 120 ppm DMDMH, 45 min): 16 ppm H2O2
peroxide stabilization compared to glutaraldehyde ([1]; Table 1 comparison, ppm product basis): superior peroxide stabilization compared to glutaraldehyde

O=CCCCC=O [Glutaraldehyde, glutaraldehyde]
H2O2 residual ([1]; 83 ppm glutaraldehyde, 0 min): 25 ppm H2O2
H2O2 residual ([1]; 83 ppm glutaraldehyde, 10 min): 24 ppm H2O2
H2O2 residual ([1]; 83 ppm glutaraldehyde, 15 min): 22 ppm H2O2
H2O2 residual ([1]; 83 ppm glutaraldehyde, 20 min): 20 ppm H2O2
H2O2 residual ([1]; 83 ppm glutaraldehyde, 30 min): 16 ppm H2O2
H2O2 residual ([1]; 83 ppm glutaraldehyde, 40 min): 14 ppm H2O2
H2O2 residual ([1]; 83 ppm glutaraldehyde, 45 min): 12 ppm H2O2
H2O2 residual ([1]; 166 ppm glutaraldehyde, 0 min): 26 ppm H2O2
H2O2 residual ([1]; 166 ppm glutaraldehyde, 10 min): 24 ppm H2O2
H2O2 residual ([1]; 166 ppm glutaraldehyde, 15 min): 21 ppm H2O2
H2O2 residual ([1]; 166 ppm glutaraldehyde, 20 min): 19 ppm H2O2
H2O2 residual ([1]; 166 ppm glutaraldehyde, 30 min): 17 ppm H2O2
H2O2 residual ([1]; 166 ppm glutaraldehyde, 40 min): 15 ppm H2O2
H2O2 residual ([1]; 166 ppm glutaraldehyde, 45 min): 13 ppm H2O2
Peroxide Decomposition Rate (catalase; 1.2 units catalase, pH 7.0, 23° C., peroxide 390 to 350 ppm): 0.230 ppm/sec
Normalized Decomposition Rate (catalase; control = 1.00): 1.0
